Test results taken from ChEMBL document CHEMBL4425118, “Potential Treatment for Neuropsychiatry Disorders with TRPC5 Modulators” (ACS Med Chem Lett, 2016).

Tests used:
[1] = biological target: T1, Short transient receptor potential channel 5 (Homo sapiens, UniProt Q9UL62); assay: Inhibition of TRPC5 (unknown origin) transfected in HEK293/TREx cells assessed as blocking of inward/outward currents after 20 to 48 hrs in presence of LaCl3 by patch clamp assay; type: cell-based
T1 sequence (Q9UL62 whole entry): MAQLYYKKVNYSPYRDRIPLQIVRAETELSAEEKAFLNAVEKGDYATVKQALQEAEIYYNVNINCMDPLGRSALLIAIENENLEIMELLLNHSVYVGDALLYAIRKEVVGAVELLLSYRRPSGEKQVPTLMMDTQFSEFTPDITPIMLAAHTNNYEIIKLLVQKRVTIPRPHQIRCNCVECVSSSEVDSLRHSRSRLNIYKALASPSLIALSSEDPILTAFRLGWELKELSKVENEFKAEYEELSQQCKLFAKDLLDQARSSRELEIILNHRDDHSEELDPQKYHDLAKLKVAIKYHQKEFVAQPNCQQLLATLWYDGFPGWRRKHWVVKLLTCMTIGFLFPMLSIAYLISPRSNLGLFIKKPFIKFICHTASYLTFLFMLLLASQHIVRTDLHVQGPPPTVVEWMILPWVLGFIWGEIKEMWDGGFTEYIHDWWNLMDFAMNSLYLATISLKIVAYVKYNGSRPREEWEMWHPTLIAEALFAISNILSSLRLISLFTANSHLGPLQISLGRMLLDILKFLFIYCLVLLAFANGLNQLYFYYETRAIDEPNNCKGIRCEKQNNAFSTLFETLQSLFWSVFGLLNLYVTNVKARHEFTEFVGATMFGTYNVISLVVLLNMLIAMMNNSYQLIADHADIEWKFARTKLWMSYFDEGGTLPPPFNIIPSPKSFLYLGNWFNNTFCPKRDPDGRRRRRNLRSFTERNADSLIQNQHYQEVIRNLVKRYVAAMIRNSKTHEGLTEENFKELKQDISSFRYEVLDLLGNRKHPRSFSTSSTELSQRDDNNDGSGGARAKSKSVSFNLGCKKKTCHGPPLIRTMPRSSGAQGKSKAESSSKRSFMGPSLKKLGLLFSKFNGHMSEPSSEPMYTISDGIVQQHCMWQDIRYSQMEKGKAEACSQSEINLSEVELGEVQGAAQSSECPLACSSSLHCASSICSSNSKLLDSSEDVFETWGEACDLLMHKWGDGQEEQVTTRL

[2] = biological target: T1, Short transient receptor potential channel 5; assay: Inhibition of TRPC5 (unknown origin) transfected in HEK293/TREx cells assessed as reduction of rise in intracellular Ca2+ concentration after 60 to 80 mins by Fluo4 cell-based fluorescence assay

| SMILES | IC50 [1] [nM] | IC50 [2] [nM] |
| --- | --- | --- |
| Cn1c(=O)n(CCCO)c(=O)c2c(Cc3ccccc3)c(-c3cccc(OC(F)(F)F)c3)ccc21 | 5.3 | – |
| COc1ccc2c(c1Cc1ccccc1)c(=O)n(CCCO)c(=O)n2C | 23.3 | – |
| CC(C)Oc1ccc2c(c1Cc1ccc(F)cc1)c(=O)n(CCCO)c(=O)n2C | 9 | 2.64 |
| Cn1c(=O)n(CCCO)c(=O)c2c(Cc3ccccc3)c(Oc3cccc(OC(F)(F)F)c3)ccc21 | < 1 | 2.69 |

The next lines start with results.

| IC50 [1] [nM] | SMILES | IC50 [2] [nM] |
| --- | --- | --- |
| < 1 | CCCCOc1ccc2c(c1Cc1ccc(F)cc1)c(=O)n(CCCO)c(=O)n2C | < 1 |
| 8.37 | COc1ccc2c(c1Cc1ccc(F)cc1)c(=O)n(CCCO)c(=O)n2C | > 100 |
